In patent publication US11911467B2, “Composition comprising PIC for treatment of cancer” (Yisheng Biopharma (Singapore) PTE LTD, priority 2016, dated 2024):
“And” between values parts separate entries of the source, which are not always exact repeats. Identical values can stand only once.

Experiments:
[1] = test system: Ehrlich Ascites Cancer (EAC) tumor; set-up: species or system female Kunming mice; conditions: mouse, in vivo
S180 tumor = test system: S180 tumor; set-up: species or system female Balb/c mice; conditions: mouse, in vivo
[2] = test system: LL/2 murine Lewis lung tumor
4T1 murine breast tumor = 4T1 murine breast tumor model (Example 3); assay type: in vivo, female Balb/c mice
Method: 1.1 Female Balb/c mice (6 weeks old, body weight 17.2±0.1 g) were obtained from Shanghai SIPPR-BK Laboratory Animal Co. Ltd.
The murine breast cancer cancer cell line 4T1 was obtained from American Type Culture Collection (ATCC), and maintained by HD Biosciences. Cells were maintained in DMEM with 10% fetal bovine serum in a atmosphere of 5% CO2 at 37° C. Passaging ratio was between 1:5 and 1:8, at the frequency of 3 to 4 times per week.
4T1 murine breast tumor model was established in female Balb/c mice by subcutaneous inoculation with 1×10^6 cells per animal. The rate of tumor formation was 100%. Three days post cell inoculation, the cell inoculated mice were randomly sorted into treatment groups by weight. Animals in each group were administered according to Table 2.
There were 4 groups: Vehicle group, Docetaxel group, YS-ON-001 low dose group, and YS-ON-001 high dose group.
2. The Studies were Terminated when the Average Tumor Volume in Vehicle Group Reached 2500 mm^3
3. At the end of study, the tumor mass was removed and photographed. The tumor weight was recorded. The thymus and spleen was removed and weighed. And then, the organ index was calculated.
III. Observational Indices: Same as in Example 2 Section III.
Data were reported as Mean±SEM. Comparison between groups was analysed using ANOVA.

[3] = Cisplatin 5 mg/kg i.v. QW, total 3 dosing, end of study
[4] = Docetaxel 10 mg/kg i.v. QW, total 3 dosing, end of study

For `O=P1(N(CCCl)CCCl)NCCCO1` (centres unmarked) [CTX, Cyclophosphamide], the “Day on which all mice were dead” value [1] was 30 days, the “Day on which death was first observed” value [1] was 27 days and the “Median duration (to death)” value [1] was 29 days and 34.5 days. For the same compound, the “Tumor growth (tumor volume) compared with saline control group” value (S180 tumor) was “significantly inhibited the tumor growth” and the “Tumor weight compared with saline control group” value (S180 tumor) was “significantly decreased tumor weight”.

`N.N.[Cl][Pt][Cl]` [Cisplatin] was tested, and the “Number of lung metastases compared with vehicle group” value (B16F10 metastasis tumor; day 15, Cisplatin 5 mg/kg i.v. Q4D, YS-ON-001 200 μg/0.2 mL/mice/dose i.m./s.c. BID, p<0.01) was “significantly decreased”, the “Spleen weight and spleen index compared with vehicle group” value (B16F10 metastasis tumor; mouse, in vivo) was “not affected” and the “Thymus weight and thymus index compared with vehicle group” value (B16F10 metastasis tumor; mouse, in vivo) was “significantly decreased”. For the same compound, the “Relative tumor proliferation rate T/C” value [2, 3] was 53.04%, the “Tumor inhibition rate (tumor weight)” value [2, 3] was 29.46% and the “Spleen index compared to vehicle group” value ([2]; mouse, in vivo) was “trend of reducing which is not significant”. For the same compound, the “Spleen weight compared to vehicle group” value ([2]; mouse, in vivo) was “significantly reduced” and the “Thymus weight and thymus index compared to vehicle group” value ([2]; mouse, in vivo) was “significantly reduced”.

For `CC(=O)O[C@@]12CO[C@@H]1C[C@H](O)[C@@]1(C)C(=O)[C@H](O)C3=C(C)[C@@H](OC(=O)[C@H](O)[C@@H](NC(=O)OC(C)(C)C)c4ccccc4)C[C@@](O)([C@@H](OC(=O)c4ccccc4)[C@H]21)C3(C)C` [Docetaxel], the “Relative tumor proliferation rate T/C” value (4T1 murine breast tumor; [4]) was 50.12%, the “Tumor inhibition rate (tumor weight)” value (4T1 murine breast tumor; [4]) was 35.55% and the “Body weight compared to vehicle group” value (4T1 murine breast tumor; Docetaxel 10 mg/kg, Day 8 and Day 13 to end of study, p<0.01) was “significantly affected”. The “Body weight change compared to vehicle group” value (4T1 murine breast tumor; Docetaxel: Day 4 to end, two YS-ON-001 groups: Day 4 and Day 15 to end) was “significantly reduced”, the “Spleen weight compared to vehicle group” value (4T1 murine breast tumor; end of study, doses of Table 2) was “significantly reduced” and the “Thymus weight and thymus index compared to vehicle group” value (4T1 murine breast tumor; end of study, doses of Table 2) was “significantly reduced”. For the same compound, the “Spleen index compared to vehicle group” value (4T1 murine breast tumor; end of study, doses of Table 2, YS-ON-001 p<0.01 low dose, p<0.05 high dose) was “significantly reduced”.
